The text below walks through data of patent US5698550A, “Tetralin and chroman derivatives useful in the treatment of asthma, arthritis and related diseases” (Pfizer Inc., priority 1993, dated 1997).

The assay relates to PAF-induced lethality in CD1 male mice. Kind of assay: PAF lethality assay. The class given is in vivo. The following applies: Mus musculus; positive control; oral dosing 45 minutes before i.v. PAF injection; mortality compared to controls; read-out: approximate ED 50. The procedure:
To evaluate the compounds of the formula (I) in vivo, they are tested by the so-called PAF lethality assay procedure:
Mice: CD1 males, all approximately the same weight (approximately 26 grams), 12 per group.
Vehicle for oral drug dosing: EES (5% ethanol, 5% emulphor, 90% saline). Stored at room temperature.
Drugs: For routine screening at 50 mg/kg, 20 mg drug is dissolved in 4 ml EES, using sonication in a sonicator bath or grinding in a Ten Broeck grinder to dissolve drug if necessary. If solubility is still a problem, the drug is used as a suspension.
Vehicle for i.v. Injection: Saline with 2.5 mg/ml Bovine Serum Albumin (BSA, Sigma #A4378) and 0.05 mg/ml Propranolol (Sigma #P0884). Prepared fresh daily and kept at room temperature.
Platelet Activating Factor (PAF): A […] stock solution is prepared by dissolving 1 mg PAF (Calbiochem #429460) in 0.18 ml ethanol. This is stored at -20° C. and is diluted in vehicle (see above) the day of use. The concentration of PAF used is calibrated so that when injected at 0.1 ml/10 grams body weight, it will kill approximately 80% of untreated controls. This is usually about […] (a 1 to 2034 dilution from stock). […]
45 minutes before PAF injection, mice are treated orally with drug using 0.1 ml/10 grams body weight. […] Results are expressed as percent mortality as compared to controls. […]

As to `O=C1CCN(c2ccccc2)N1` [Phenidone], the ED50 is around 25 mg/kg.
